Test results reported in the supplement of paper PMC10307832.

Assays:
Test in all cases: relative viability (nuclei count vs DMSO), 5 days (fraction); higher = more cells survive
[1] = compound: CN(C)C[C@@H]1CCn2cc(c3ccccc32)C2=C(C(=O)NC2=O)c2cn(c3ccccc23)CCO1 [Ruboxistaurin] + O=C(CCCCCCC(=O)Nc1ccccc1)NO [Vorinostat] (partner 1 µM)
How it was run: (§1)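 Each reported value is a median over duplicate plates. It expresses relative viability: treated-well nuclei count divided by vehicle-well nuclei count. Lung cancer cell lines in 1536-well plates were dosed by pin tool a day after seeding, alone with one drug or with a fixed anchor-drug dose plus five library-drug doses (not always all listed) in √10 steps, and nuclei were counted after 5 days.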

Ruboxistaurin + AZD7762 = compound: CN(C)C[C@@H]1CCn2cc(c3ccccc32)C2=C(C(=O)NC2=O)c2cn(c3ccccc23)CCO1 [Ruboxistaurin] + NC(=O)Nc1cc(-c2cccc(F)c2)sc1C(=O)N[C@H]1CCCNC1 [AZD7762] (partner 0.2 µM)
How it was run: as §1

[2] = compound: CN(C)C[C@@H]1CCn2cc(c3ccccc32)C2=C(C(=O)NC2=O)c2cn(c3ccccc23)CCO1 [Ruboxistaurin] + CS(=O)(=O)CCNCc1ccc(-c2ccc3ncnc(Nc4ccc(OCc5cccc(F)c5)c(Cl)c4)c3c2)o1 [Lapatinib] (partner 2 µM)
How it was run: as §1

[3] = compound: CN(C)C[C@@H]1CCn2cc(c3ccccc32)C2=C(C(=O)NC2=O)c2cn(c3ccccc23)CCO1 [Ruboxistaurin] + CC(=O)Nc1cccc(-n2c(=O)n(C3CC3)c(=O)c3c(Nc4ccc(I)cc4F)n(C)c(=O)c(C)c32)c1 [Trametinib] (partner 0.02 µM)
How it was run: as §1

Ruboxistaurin = compound: CN(C)C[C@@H]1CCn2cc(c3ccccc32)C2=C(C(=O)NC2=O)c2cn(c3ccccc23)CCO1 [Ruboxistaurin]
How it was run: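 In 1536-well plates, lung cancer cell lines rested overnight at 37 °C before five library-drug doses (not always all listed), √10 apart, were pinned onto vehicle-anchored plates. Nuclei were counted with MetaXpress from 4× Hoechst images taken after 5 days without medium change. Viability compares treated-well with vehicle-well nuclei as a median over plates, and plates needed control CV below 25% plus at least one doubling to pass.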

| Cell Line | relative viability ([1]; first compound 0.08 µM) | relative viability ([1]; first compound 0.8 µM) | relative viability ([1]; first compound 2.53 µM) | relative viability ([1]; first compound 8 µM) | relative viability (Ruboxistaurin + AZD7762; first compound 0.08 µM) | relative viability (Ruboxistaurin + AZD7762; first compound 0.8 µM) | relative viability (Ruboxistaurin + AZD7762; first compound 2.53 µM) | relative viability (Ruboxistaurin + AZD7762; first compound 8 µM) | relative viability ([2]; first compound 0.08 µM) | relative viability ([2]; first compound 0.8 µM) | relative viability ([2]; first compound 2.53 µM) | relative viability ([2]; first compound 8 µM) | relative viability ([3]; first compound 0.08 µM) | relative viability ([3]; first compound 0.8 µM) | relative viability ([3]; first compound 2.53 µM) | relative viability ([3]; first compound 8 µM) | relative viability (Ruboxistaurin; 0.08 µM) | relative viability (Ruboxistaurin; 0.8 µM) | relative viability (Ruboxistaurin; 2.53 µM) | relative viability (Ruboxistaurin; 8 µM) |
| --- | --- | --- | --- | --- | --- | --- | --- | --- | --- | --- | --- | --- | --- | --- | --- | --- | --- | --- | --- | --- |
| NCI-H1915 | 0.473 | 0.526 | 0.513 | 0.464 | 0.705 | 0.62 | 0.716 | 0.689 | 1.02 | 0.918 | 0.891 | 0.967 | 0.324 | 0.292 | 0.303 | 0.285 | 0.984 | 0.958 | 0.998 | 0.962 |
| BEN | 0.608 | 0.544 | 0.6 | 0.585 | 0.833 | 0.668 | 0.639 | 0.509 | 0.803 | 0.617 | 0.708 | 0.564 | 1.07 | 0.976 | 1.01 | 0.895 | 1.05 | 0.902 | 0.877 | 0.857 |
| NCI-H2347 | 0.621 | 0.679 | 0.65 | 0.561 | 0.989 | 0.73 | 0.797 | 0.606 | 1.02 | 0.829 | 0.934 | 0.979 | 0.306 | 0.293 | 0.256 | 0.167 | 1.07 | 0.976 | 1.08 | 1.08 |
| H3255 | 0.717 | 0.717 | 0.815 | 0.898 | 1.05 | 0.984 | 0.924 | 0.97 | 0.221 | 0.217 | 0.27 | 0.221 | 0.635 | 0.479 | 0.644 | 0.536 | 1.09 | 0.919 | 0.99 | 0.99 |
| NCI-H1975 | 0.802 | 0.696 | 0.698 | 0.682 | 0.784 | 0.639 | 0.686 | 0.601 | 0.93 | 0.821 | 0.906 | 0.826 | 0.573 | 0.336 | 0.416 | 0.331 | 0.945 | 0.834 | 1.02 | 0.927 |
| NCI-H647 | 0.673 | 0.447 | 0.725 | 0.719 | 0.529 | 0.422 | 0.452 | 0.371 | 1.06 | 0.97 | 1.08 | 0.815 | 0.568 | 0.374 | 0.473 | 0.431 | 1.1 | 0.898 | 1 | 0.978 |
| A-427 | 0.826 | 0.824 | 0.872 | 0.838 | 0.849 | 0.639 | 0.709 | 0.516 | 0.995 | 0.988 | 0.917 | 0.983 | 0.88 | 0.692 | 0.752 | 0.548 | 0.997 | 0.871 | 0.924 | 0.821 |
| LXF-289 | 0.858 | 0.787 | 0.777 | 0.918 | 1.12 | 1.03 | 1.07 | 1.17 | 0.914 | 0.88 | 0.886 | 0.864 | 0.653 | 0.631 | 0.66 | 0.684 | 1.02 | 0.999 | 0.991 | 1.06 |
| NCI-H727 | 1.1 | 1.14 | 1.13 | 1.28 | 0.657 | 0.607 | 0.487 | 0.61 | 1.09 | 0.552 | 0.804 | 0.602 | 0.361 | 0.395 | 0.384 | 0.367 | 0.952 | 0.7 | 0.969 | 0.808 |
| NCI-H1437 | 0.834 | 0.724 | 0.825 | 0.798 | 1.18 | 1.06 | 1.16 | 1.17 | 0.934 | 0.675 | 0.751 | 0.819 | 0.517 | 0.526 | 0.577 | 0.477 | 1 | 0.914 | 0.993 | 1.07 |
| RERF-LC-KJ | 0.663 | 0.623 | 0.675 | 0.644 | 1.05 | 1.04 | 0.982 | 1.19 | 0.905 | 0.837 | 0.781 | 0.77 | 0.932 | 0.867 | 0.836 | 0.857 | 1.04 | 0.903 | 0.995 | 0.959 |
| HCC-44 | 1.04 | 1.04 | 1.1 | 1.23 | 1.02 | 1.01 | 1.02 | 1.07 | 0.982 | 1 | 1.03 | 1.1 | 1.02 | 1 | 1.06 | 1.21 | 1.01 | 0.979 | 1.01 | 1.07 |
| EPLC-272H | 0.498 | 0.48 | 0.357 | 0.429 | 0.263 | 0.108 | 0.276 | 0.0372 | 0.966 | 0.916 | 0.933 | 0.962 | 0.347 | 0.228 | 0.27 | 0.257 | 1.12 | 0.794 | 0.928 | 0.857 |
| NCI-H358 | 0.865 | 0.659 | 0.768 | 0.666 | 0.593 | 0.48 | 0.519 | 0.49 | 0.479 | 0.408 | 0.421 | 0.406 | 0.159 | 0.116 | 0.125 | 0.112 | 1.14 | 0.881 | 0.984 | 0.712 |
| NCI-H596 | 0.817 | 0.428 | 0.578 | 0.576 | 1.14 | 0.942 | 0.972 | 0.812 | 1.08 | 0.965 | 1.04 | 0.848 | 0.892 | 0.766 | 0.727 | 0.796 | 0.979 | 0.864 | 1.02 | 0.867 |
| NCI-H322M | 0.878 | 0.753 | 0.737 | 0.556 | 0.56 | 0.564 | 0.573 | 0.475 | 0.589 | 0.54 | 0.543 | 0.543 | 0.538 | 0.477 | 0.535 | 0.404 | 1.02 | 0.863 | 0.895 | 0.551 |
